≈ marks a conversion by molar mass, not a printed value.
Legend:
Format in all cases: functional
[1] = test system: Staphylococcus aureus; assay: Antibacterial activity against Staphylococcus aureus ATCC 25923 after 18 to 24 hrs by CLSI two fold serial dilution method
[2] = test system: Staphylococcus aureus; assay: Antibacterial activity against methicillin-resistant Staphylococcus aureus N315 after 18 to 24 hrs by CLSI two fold serial dilution method
[3] = test system: Bacillus subtilis; assay: Antibacterial activity against Bacillus subtilis ATCC 21216 after 18 to 24 hrs by CLSI two fold serial dilution method
[4] = test system: Micrococcus luteus; assay: Antibacterial activity against Micrococcus luteus ATCC 4698 after 18 to 24 hrs by CLSI two fold serial dilution method
[5] = test system: Enterococcus faecalis; assay: Antibacterial activity against drug-resistant Enterococcus faecalis after 18 to 24 hrs by CLSI two fold serial dilution method
[6] = test system: Escherichia coli; assay: Antibacterial activity against Escherichia coli DH52 after 18 to 24 hrs by CLSI two fold serial dilution method
[7] = test system: Escherichia coli; assay: Antibacterial activity against drug-resistant Escherichia coli after 18 to 24 hrs by CLSI two fold serial dilution method
[8] = test system: Pseudomonas aeruginosa; assay: Antibacterial activity against Pseudomonas aeruginosa ATCC 27853 after 18 to 24 hrs by CLSI two fold serial dilution method
[9] = test system: Pseudomonas aeruginosa; assay: Antibacterial activity against drug-resistant Pseudomonas aeruginosa after 18 to 24 hrs by CLSI two fold serial dilution method
[10] = test system: Klebsiella pneumoniae; assay: Antibacterial activity against drug-resistant Klebsiella pneumoniae after 18 to 24 hrs by CLSI two fold serial dilution method
[11] = test system: Acinetobacter baumannii; assay: Antibacterial activity against drug-resistant Acinetobacter baumannii after 18 to 24 hrs by CLSI two fold serial dilution method
[12] = test system: Candida albicans; assay: Antifungal activity against Candida albicans ATCC 76615 by CLSI two fold serial dilution method
[13] = test system: Cyberlindnera jadinii; assay: Antifungal activity against Candida utilis ATCC 9950 by CLSI two fold serial dilution method; settings: Williopsis jadinii
[14] = test system: Pichia norvegensis; assay: Antifungal activity against Candida mycoderma ATCC 96918 by CLSI two fold serial dilution method
[15] = test system: Aspergillus flavus; assay: Antifungal activity against Aspergillus flavus ATCC 204304 by CLSI two fold serial dilution method
[16] = test system: Saccharomyces cerevisiae; assay: Antifungal activity against Saccharomyces cerevisiae ATCC 9763 by CLSI two fold serial dilution method
[17] = test system: Candida parapsilosis; assay: Antifungal activity against Candida parapsilosis ATCC 22019 by CLSI two fold serial dilution method; settings: Lodderomyces parapsilosis
[18] = test system: Candida albicans; assay: Antifungal activity against drug-resistant Candida albicans by CLSI two fold serial dilution method
[19] = test system: Candida tropicalis; assay: Antifungal activity against drug-resistant Candida tropicalis by CLSI two fold serial dilution method
[20] = test system: Aspergillus fumigatus; assay: Antifungal activity against drug-resistant Aspergillus fumigatus by CLSI two fold serial dilution method

| SMILES | MIC [1] | MIC [2] | MIC [3] | MIC [4] | MIC [5] | MIC [6] | MIC [7] | MIC [8] | MIC [9] | MIC [10] | MIC [11] | MIC [12] | MIC [13] | MIC [14] | MIC [15] | MIC [16] | MIC [17] | MIC [18] | MIC [19] | MIC [20] |
| --- | --- | --- | --- | --- | --- | --- | --- | --- | --- | --- | --- | --- | --- | --- | --- | --- | --- | --- | --- | --- |
| C#CCOc1c(OC)cc(/C=N/NC(N)=S)c2c1CN1CCc3cc4c(cc3C1C2)OCO4 (centres undefined) | 70 µM (≈ 32.5 µg/mL) | 30 µM (≈ 13.9 µg/mL) | 550 µM (≈ 256 µg/mL) | 280 µM (≈ 130 µg/mL) | 550 µM (≈ 256 µg/mL) | 140 µM (≈ 65 µg/mL) | 140 µM (≈ 65 µg/mL) | 550 µM (≈ 256 µg/mL) | 550 µM (≈ 256 µg/mL) | 140 µM (≈ 65 µg/mL) | 4 µM (≈ 1.86 µg/mL) | 140 µM (≈ 65 µg/mL) | 280 µM (≈ 130 µg/mL) | 1100 µM (≈ 511 µg/mL) | 550 µM (≈ 256 µg/mL) | 280 µM (≈ 130 µg/mL) | 280 µM (≈ 130 µg/mL) | 140 µM (≈ 65 µg/mL) | 140 µM (≈ 65 µg/mL) | 20 µM (≈ 9.29 µg/mL) |
| COc1cc(/C=N/NC(N)=S)c2c(c1OCc1ccc([N+](=O)[O-])cc1)CN1CCc3cc4c(cc3C1C2)OCO4 (centres undefined) | 230 µM (≈ 129 µg/mL) | 230 µM (≈ 129 µg/mL) | 460 µM (≈ 258 µg/mL) | 110 µM (≈ 61.8 µg/mL) | 230 µM (≈ 129 µg/mL) | 110 µM (≈ 61.8 µg/mL) | 110 µM (≈ 61.8 µg/mL) | 230 µM (≈ 129 µg/mL) | 230 µM (≈ 129 µg/mL) | 460 µM (≈ 258 µg/mL) | 460 µM (≈ 258 µg/mL) | 230 µM (≈ 129 µg/mL) | 460 µM (≈ 258 µg/mL) | 230 µM (≈ 129 µg/mL) | 460 µM (≈ 258 µg/mL) | 460 µM (≈ 258 µg/mL) | 110 µM (≈ 61.8 µg/mL) | 230 µM (≈ 129 µg/mL) | 460 µM (≈ 258 µg/mL) | 460 µM (≈ 258 µg/mL) |
| CCCCOc1c(OC)cc(/C=N/NC(N)=S)c2c1CN1CCc3cc4c(cc3C1C2)OCO4 (centres undefined) | 130 µM (≈ 62.7 µg/mL) | 130 µM (≈ 62.7 µg/mL) | 270 µM (≈ 130 µg/mL) | 270 µM (≈ 130 µg/mL) | 130 µM (≈ 62.7 µg/mL) | 270 µM (≈ 130 µg/mL) | 270 µM (≈ 130 µg/mL) | 130 µM (≈ 62.7 µg/mL) | 270 µM (≈ 130 µg/mL) | 130 µM (≈ 62.7 µg/mL) | 70 µM (≈ 33.8 µg/mL) | 130 µM (≈ 62.7 µg/mL) | 130 µM (≈ 62.7 µg/mL) | 130 µM (≈ 62.7 µg/mL) | 270 µM (≈ 130 µg/mL) | 530 µM (≈ 256 µg/mL) | 130 µM (≈ 62.7 µg/mL) | 130 µM (≈ 62.7 µg/mL) | 270 µM (≈ 130 µg/mL) | 270 µM (≈ 130 µg/mL) |
| COc1cc(/C=N/NC(N)=S)c2c(c1OCc1ccccc1)CN1CCc3cc4c(cc3C1C2)OCO4 (centres undefined) | 120 µM (≈ 62 µg/mL) | 120 µM (≈ 62 µg/mL) | 250 µM (≈ 129 µg/mL) | 250 µM (≈ 129 µg/mL) | 250 µM (≈ 129 µg/mL) | 250 µM (≈ 129 µg/mL) | 250 µM (≈ 129 µg/mL) | 250 µM (≈ 129 µg/mL) | 250 µM (≈ 129 µg/mL) | 500 µM (≈ 258 µg/mL) | 120 µM (≈ 62 µg/mL) | 250 µM (≈ 129 µg/mL) | 250 µM (≈ 129 µg/mL) | 500 µM (≈ 258 µg/mL) | 250 µM (≈ 129 µg/mL) | 250 µM (≈ 129 µg/mL) | 30 µM (≈ 15.5 µg/mL) | 250 µM (≈ 129 µg/mL) | 250 µM (≈ 129 µg/mL) | 60 µM (≈ 31 µg/mL) |
| COc1cc(/C=N/NC(N)=S)c2c(c1OCc1ccccc1Cl)CN1CCc3cc4c(cc3C1C2)OCO4 (centres undefined) | 120 µM (≈ 66.1 µg/mL) | 120 µM (≈ 66.1 µg/mL) | 230 µM (≈ 127 µg/mL) | 230 µM (≈ 127 µg/mL) | 230 µM (≈ 127 µg/mL) | 230 µM (≈ 127 µg/mL) | 230 µM (≈ 127 µg/mL) | 470 µM (≈ 259 µg/mL) | 470 µM (≈ 259 µg/mL) | 230 µM (≈ 127 µg/mL) | 4 µM (≈ 2.2 µg/mL) | 230 µM (≈ 127 µg/mL) | 230 µM (≈ 127 µg/mL) | 230 µM (≈ 127 µg/mL) | 470 µM (≈ 259 µg/mL) | 930 µM (≈ 512 µg/mL) | 230 µM (≈ 127 µg/mL) | 230 µM (≈ 127 µg/mL) | 470 µM (≈ 259 µg/mL) | 4 µM (≈ 2.2 µg/mL) |
| CCCCCCCCCCCCOc1c(OC)cc(/C=N/Nc2nccs2)c2c1CN1CCc3cc4c(cc3C1C2)OCO4 (centres undefined) | 210 µM (≈ 130 µg/mL) |  | 30 µM (≈ 18.6 µg/mL) | 830 µM (≈ 514 µg/mL) |  | 210 µM (≈ 130 µg/mL) |  | 410 µM (≈ 254 µg/mL) |  |  |  | 410 µM (≈ 254 µg/mL) | 410 µM (≈ 254 µg/mL) | 50 µM (≈ 30.9 µg/mL) | 410 µM (≈ 254 µg/mL) | 830 µM (≈ 514 µg/mL) | 30 µM (≈ 18.6 µg/mL) |  |  |  |
| CCn1cc(C(=O)O)c(=O)c2cc(F)c(N3CCNCC3)cc21 [NORFLOXACIN] | 2 µM (≈ 0.639 µg/mL) | 30 µM (≈ 9.58 µg/mL) | 3 µM (≈ 0.958 µg/mL) | 6 µM (≈ 1.92 µg/mL) | 800 µM (≈ 255 µg/mL) | 50 µM (≈ 16 µg/mL) | 1600 µM (≈ 511 µg/mL) | 50 µM (≈ 16 µg/mL) | 1600 µM (≈ 511 µg/mL) | 800 µM (≈ 255 µg/mL) | 800 µM (≈ 255 µg/mL) |  |  |  |  |  |  |  |  |  |
| C#CCOc1c(OC)cc(/C=N/Nc2nccs2)c2c1CN1CCc3cc4c(cc3C1C2)OCO4 (centres undefined) | 130 µM (≈ 63.5 µg/mL) |  | 520 µM (≈ 254 µg/mL) | 520 µM (≈ 254 µg/mL) |  | 130 µM (≈ 63.5 µg/mL) |  | 130 µM (≈ 63.5 µg/mL) |  |  |  | 260 µM (≈ 127 µg/mL) | 260 µM (≈ 127 µg/mL) | 1050 µM (≈ 513 µg/mL) | 1050 µM (≈ 513 µg/mL) | 1050 µM (≈ 513 µg/mL) | 130 µM (≈ 63.5 µg/mL) |  |  |  |
| CCCCCCCCOc1c(OC)cc(/C=N/Nc2nccs2)c2c1CN1CCc3cc4c(cc3C1C2)OCO4 (centres undefined) | 230 µM (≈ 129 µg/mL) |  | 450 µM (≈ 253 µg/mL) | 450 µM (≈ 253 µg/mL) |  | 450 µM (≈ 253 µg/mL) |  | 230 µM (≈ 129 µg/mL) |  |  |  | 230 µM (≈ 129 µg/mL) | 460 µM (≈ 259 µg/mL) | 460 µM (≈ 259 µg/mL) | 460 µM (≈ 259 µg/mL) | 460 µM (≈ 259 µg/mL) | 230 µM (≈ 129 µg/mL) |  |  |  |

— ChEMBL document CHEMBL4145497, “Discovery of 2-aminothiazolyl berberine derivatives as effectively antibacterial agents toward clinically drug-resistant Gram-negative Acinetobacter baumanii” (Eur J Med Chem, 2018)
